Measured values reported in ChEMBL document CHEMBL4715883, “Novel BuChE-IDO1 inhibitors from sertaconazole: Virtual screening, chemical optimization and molecular modeling studies” (Bioorg Med Chem Lett, 2021).
pIC50: −log10 of the molar value.

Assays:
Cholinesterase = Cholinesterase (Equus caballus, UniProt P81908); experiment: Inhibition of equine serum BuChE using butyrylthiocholine iodide as substrate preincubated for 5 mins followed by substrate addition and measured after 2 mins by Ellman's method; format: cell-free
[1] = molecular target: Indoleamine 2,3-dioxygenase 1 (Homo sapiens, UniProt P14902); experiment: Inhibition of human N-terminal IDO1 expressed in Escherichia coli BL21 A1 cells using L-tryptophan as substrate measured after 30 mins by HPLC analysis
[2] = molecular target: Acetylcholinesterase (Electrophorus electricus) (UniProt O42275); experiment: Inhibition of electric eel […] iodide as substrate at 50 uM preincubated for 5 mins followed by substrate addition and measured after 2 mins by Ellman's method relative to control; conditions: time 7.0 min
Acetylcholinesterase = Acetylcholinesterase (Electrophorus electricus, UniProt O42275); experiment: Inhibition of electric eel […] iodide as substrate preincubated for 5 mins followed by substrate addition and measured after 2 mins by Ellman's method
[3] = Selectivity index, ratio of IC50 for inhibition of electric eel […] iodide as substrate to IC50 for inhibition of equine serum BuChE using butyrylthiocholine iodide as substrate
[4] = Cytotoxicity against human SH-SY5Y cells assessed as reduction in cell viability after 48 hrs by MTT assay; format: cell-based; conditions: read-out: LD50
Homo sapiens [5] = organism: Homo sapiens; experiment: Inhibition of amyloid beta (1 to 42) (unknown origin) aggregation by ThT fluorescence assay; conditions: dose 10-50 µM
Homo sapiens [6] = organism: Homo sapiens; experiment: inhibition of amyloid beta (1 to 42) (unknown origin) aggregation at 50 uM by ThT fluorescence assay relative to control

Sequence of Indoleamine 2,3-dioxygenase 1 (P14902 whole entry): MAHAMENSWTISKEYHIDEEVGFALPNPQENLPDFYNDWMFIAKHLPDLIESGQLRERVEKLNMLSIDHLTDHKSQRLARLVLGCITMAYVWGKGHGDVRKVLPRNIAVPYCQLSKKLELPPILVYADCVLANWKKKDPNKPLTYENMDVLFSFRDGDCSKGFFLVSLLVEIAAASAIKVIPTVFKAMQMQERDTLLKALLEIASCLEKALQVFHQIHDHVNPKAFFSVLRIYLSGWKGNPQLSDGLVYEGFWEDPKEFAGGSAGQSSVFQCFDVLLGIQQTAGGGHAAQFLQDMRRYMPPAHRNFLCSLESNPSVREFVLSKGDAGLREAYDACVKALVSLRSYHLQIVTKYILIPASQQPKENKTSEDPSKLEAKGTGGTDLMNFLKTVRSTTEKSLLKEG
Sequence of Acetylcholinesterase (Electrophorus electricus) (O42275 24-633 limits assumed): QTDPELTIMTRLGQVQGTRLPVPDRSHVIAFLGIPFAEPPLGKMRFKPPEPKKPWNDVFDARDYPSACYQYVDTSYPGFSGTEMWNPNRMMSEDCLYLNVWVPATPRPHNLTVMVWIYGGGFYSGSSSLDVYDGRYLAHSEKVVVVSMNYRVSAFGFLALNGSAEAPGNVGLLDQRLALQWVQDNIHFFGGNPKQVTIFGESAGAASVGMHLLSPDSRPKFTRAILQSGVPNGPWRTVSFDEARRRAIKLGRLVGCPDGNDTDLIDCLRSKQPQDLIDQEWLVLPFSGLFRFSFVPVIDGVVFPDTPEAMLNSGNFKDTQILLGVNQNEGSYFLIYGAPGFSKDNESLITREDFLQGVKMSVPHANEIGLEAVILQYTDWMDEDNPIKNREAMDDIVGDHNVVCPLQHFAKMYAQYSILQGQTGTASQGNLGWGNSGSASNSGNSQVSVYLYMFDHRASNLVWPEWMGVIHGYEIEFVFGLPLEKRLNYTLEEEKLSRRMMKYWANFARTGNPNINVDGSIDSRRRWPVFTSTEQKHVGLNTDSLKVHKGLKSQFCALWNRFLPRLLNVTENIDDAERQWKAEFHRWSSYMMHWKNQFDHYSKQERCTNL
Sequence of Acetylcholinesterase (O42275 whole entry): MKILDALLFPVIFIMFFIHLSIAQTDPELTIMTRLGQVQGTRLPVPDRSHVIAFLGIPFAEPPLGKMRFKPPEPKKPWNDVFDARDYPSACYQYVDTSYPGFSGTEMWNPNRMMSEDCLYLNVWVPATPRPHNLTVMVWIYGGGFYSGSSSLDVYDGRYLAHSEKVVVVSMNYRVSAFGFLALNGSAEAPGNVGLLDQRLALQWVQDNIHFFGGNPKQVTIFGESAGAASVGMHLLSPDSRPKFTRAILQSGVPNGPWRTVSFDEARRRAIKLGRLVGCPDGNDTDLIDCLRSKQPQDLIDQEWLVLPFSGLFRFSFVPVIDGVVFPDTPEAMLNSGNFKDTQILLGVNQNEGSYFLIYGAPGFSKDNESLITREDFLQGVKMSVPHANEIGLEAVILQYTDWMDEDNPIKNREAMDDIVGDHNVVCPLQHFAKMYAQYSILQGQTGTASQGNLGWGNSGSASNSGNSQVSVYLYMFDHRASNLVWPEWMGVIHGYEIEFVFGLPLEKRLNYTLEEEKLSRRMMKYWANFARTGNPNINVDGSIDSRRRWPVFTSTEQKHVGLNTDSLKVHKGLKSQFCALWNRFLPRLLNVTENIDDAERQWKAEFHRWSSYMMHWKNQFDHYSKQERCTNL
Sequence of Cholinesterase (P81908 whole entry): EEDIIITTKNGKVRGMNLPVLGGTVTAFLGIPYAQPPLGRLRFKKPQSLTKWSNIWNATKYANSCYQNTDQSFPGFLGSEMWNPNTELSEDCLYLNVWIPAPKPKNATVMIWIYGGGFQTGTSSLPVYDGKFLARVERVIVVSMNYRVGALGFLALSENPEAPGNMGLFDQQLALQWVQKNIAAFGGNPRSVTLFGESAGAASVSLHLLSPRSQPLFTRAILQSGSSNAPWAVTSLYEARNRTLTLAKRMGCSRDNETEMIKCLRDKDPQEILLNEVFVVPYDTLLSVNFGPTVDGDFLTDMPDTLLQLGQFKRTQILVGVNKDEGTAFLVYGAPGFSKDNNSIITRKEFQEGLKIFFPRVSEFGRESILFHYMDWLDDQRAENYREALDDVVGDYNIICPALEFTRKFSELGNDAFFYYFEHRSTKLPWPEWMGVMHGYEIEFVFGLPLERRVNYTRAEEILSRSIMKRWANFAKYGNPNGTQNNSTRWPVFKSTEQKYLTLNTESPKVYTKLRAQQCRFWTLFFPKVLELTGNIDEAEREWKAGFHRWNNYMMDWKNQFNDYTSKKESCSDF

| Compound | pIC50 (Cholinesterase) | pIC50 [1] | inhibition [2] | pIC50 (Acetylcholinesterase) | Ratio IC50 [3] | CC50 at 48 h [4] | inhibition (Homo sapiens [5]) | inhibition (Homo sapiens [6]) |
| --- | --- | --- | --- | --- | --- | --- | --- | --- |
| Clc1cccc(C(Cn2ccnc2)OCc2nc3ccccc3s2)c1 (stereo not drawn) | 5.22 | 4.60 | 19.9% | – | – | – | – | – |
| Clc1ccc(C(Cn2ccnc2)OCc2ccsc2)c(Cl)c1 (stereo not drawn) | 4.50 | 4.20 | – | 4.74 | 0.6 | – | – | – |
| Clc1ccc(C(Cn2ccnc2)OCc2csc3c(Cl)cccc23)c(Cl)c1 (stereo not drawn) [SERTACONAZOLE] | 5.13 | 5.42 | – | – | – | – | – | – |
| Clc1ccc(C(Cn2ccnc2)OCc2cccnc2)c(Cl)c1 (stereo not drawn) | 4.38 | 4.02 | – | 4.92 | 0.3 | – | – | – |
| Clc1ccccc1C(Cn1ccnc1)OCc1nc2ccccc2s1 (stereo not drawn) | 4.95 | 4.22 | 47.4% | 4.23 | – | – | – | – |
| Clc1ccc(C(Cn2ccnc2)OCc2cccc3ccccc23)c(Cl)c1 (stereo not drawn) | 5.40 | 4.31 | – | 4.04 | 22.6 | – | – | – |
| Brc1cccc(C(Cn2ccnc2)OCc2nc3ccccc3s2)c1 (stereo not drawn) | 4.82 | 5.43 | 25.5% | – | – | – | – | – |
| Fc1cc(C(Cn2ccnc2)OCc2nc3ccccc3s2)ccc1Cl (stereo not drawn) | 5.21 | 4.24 | 22.1% | – | – | – | – | – |
| Clc1ccc(C(Cn2ccnc2)OCc2nc3ccccc3s2)cc1Cl (stereo not drawn) | 6.00 | 5.52 | 5% | – | > 50 | – | – | – |
| Clc1ccc(C(Cn2ccnc2)OCc2nc3ccccc3o2)c(Cl)c1 (stereo not drawn) | 4.75 | 3.87 | – | 4.35 | 2.5 | – | – | – |
| Clc1ccc(C(Cn2ccnc2)OCc2ccc3ccccc3c2)c(Cl)c1 (stereo not drawn) | 7.05 | 4.65 | – | 5.37 | 47.8 | 9.8 µM | Dose-dependent effect | 48.3% |
| Clc1ccc(C(Cn2ccnc2)OCc2nc3ccccc3s2)c(Cl)c1 (stereo not drawn) | 5.41 | 5.17 | – | 4.88 | 3.4 | 11.8 µM | Dose-dependent effect | 52.2% |
| Clc1ccc(C(Cn2ccnc2)OCc2cc3ccccc3s2)c(Cl)c1 (stereo not drawn) | 5.85 | 4.75 | – | 4.81 | 11 | – | – | – |
| Clc1ccc(C(Cn2ccnc2)OCc2nc3ccccc3s2)cc1 (stereo not drawn) | 5.10 | 4.06 | 17.8% | – | – | – | – | – |
| Brc1ccc(C(Cn2ccnc2)OCc2nc3ccccc3s2)cc1 (stereo not drawn) | 5.00 | 4.31 | 21% | – | – | – | – | – |
| Fc1ccc(C(Cn2ccnc2)OCc2nc3ccccc3s2)cc1F (stereo not drawn) | 5.96 | 4.45 | 7.2% | – | > 50 | – | – | – |
| Fc1ccc(C(Cn2ccnc2)OCc2nc3ccccc3s2)cc1 (stereo not drawn) | 5.41 | 4.13 | 11.4% | – | – | – | – | – |
| Fc1ccc(C(Cn2ccnc2)OCc2nc3ccccc3s2)c(F)c1 (stereo not drawn) | 5.24 | 3.88 | 12.4% | – | – | – | – | – |
| Clc1ccc(COC(Cn2ccnc2)c2ccc(Cl)cc2Cl)c(Cl)c1 (stereo not drawn) [MICONAZOLE] | 5.37 | 5.54 | – | 5.62 | 0.6 | – | – | – |
